Key:
PxRDL2 [1] = molecular target: T1, PxRDL2 (Plutella xylostella, UniProt C0L7I7); assay: two-electrode voltage clamp, Xenopus laevis oocytes; type: cell-based
T1 sequence (C0L7I7 30-520): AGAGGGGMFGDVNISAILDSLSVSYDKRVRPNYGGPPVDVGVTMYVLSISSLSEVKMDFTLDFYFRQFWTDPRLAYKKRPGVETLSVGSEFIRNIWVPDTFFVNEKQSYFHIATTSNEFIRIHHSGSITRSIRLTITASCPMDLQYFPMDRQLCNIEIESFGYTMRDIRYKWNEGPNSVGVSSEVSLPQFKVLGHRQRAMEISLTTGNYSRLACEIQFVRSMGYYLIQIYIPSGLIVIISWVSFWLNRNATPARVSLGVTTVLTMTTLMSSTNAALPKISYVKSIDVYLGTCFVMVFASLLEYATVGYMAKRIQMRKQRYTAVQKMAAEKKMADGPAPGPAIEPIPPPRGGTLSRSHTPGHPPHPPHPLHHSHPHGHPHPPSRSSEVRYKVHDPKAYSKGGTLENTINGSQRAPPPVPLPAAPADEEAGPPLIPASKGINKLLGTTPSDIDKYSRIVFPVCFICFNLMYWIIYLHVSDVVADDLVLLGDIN

PxRDL1 = molecular target: T2, PxRDL1 (Plutella xylostella, UniProt C0L7I5); assay: as above; type: cell-based
T2 sequence (C0L7I5 26-485): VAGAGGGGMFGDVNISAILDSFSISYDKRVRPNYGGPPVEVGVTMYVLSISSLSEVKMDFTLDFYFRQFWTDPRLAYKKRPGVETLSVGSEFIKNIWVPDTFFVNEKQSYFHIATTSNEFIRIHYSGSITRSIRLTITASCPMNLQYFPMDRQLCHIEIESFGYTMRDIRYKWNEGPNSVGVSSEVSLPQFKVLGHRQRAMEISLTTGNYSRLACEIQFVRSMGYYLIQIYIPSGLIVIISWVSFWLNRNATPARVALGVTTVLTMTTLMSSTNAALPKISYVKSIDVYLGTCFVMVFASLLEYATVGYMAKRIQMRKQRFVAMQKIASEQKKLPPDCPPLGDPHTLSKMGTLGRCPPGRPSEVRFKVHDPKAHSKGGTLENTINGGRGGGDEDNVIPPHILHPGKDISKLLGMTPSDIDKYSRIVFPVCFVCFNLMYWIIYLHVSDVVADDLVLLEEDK

PxRDL2 [2] = molecular target: T1, PxRDL2; assay: cell-based; design: species or system Xenopus laevis oocytes

Row | Compound | IC50 (PxRDL2 [1]) [µM] | IC50 (PxRDL1) [µM] | IC50 (PxRDL2 [2]) [µM]
1 | Cc1cc(C2=NOC(c3cc(Cl)cc(Cl)c3)(C(F)(F)F)C2)ccc1C(=O)NCC(=O)NCC(F)(F)F (stereo not drawn) [fluralaner, 4-[5-(3,5-dichlorophenyl)-5-(trifluoromethyl)-4H-1,2-oxazol-3-yl]-2-methyl-N-[2-oxo-2-(2,2,2-trifluoroethylamino)ethyl]benzamide] | 0.018 | 0.01 | –
2 | CON=CNC(=O)c1ccc(C2=NOC(c3cc(Cl)cc(Cl)c3)(C(F)(F)F)C2)cc1C (stereo not drawn) [fluxametamide, 4-[5-(3,5-dichlorophenyl)-5-(trifluoromethyl)-4H-1,2-oxazol-3-yl]-N-[(E)-methoxyiminomethyl]-2-methylbenzamide] | 0.017 | 0.02 | –
3 | CCOC(=O)C1(C(=O)OCC)Nc2c([S+]([O-])C(F)(F)F)c(C#N)nn2-c2c(Cl)cc(C(F)(F)F)cc21 (stereo not drawn) [4a, diethyl 9-chloro-2-cyano-7-(trifluoromethyl)-3-((trifluoromethyl)sulfinyl)pyrazolo[1,5-α]quin azoline-5,5(4H)-dicarboxylate] | – | 2.02 | > 30
